Measurements from patent US8822414B2, “Heterocyclic compounds suitable for the treatment of dyslipidemia” (Cadila Healthcare Limited, priority 2010, dated 2014).

Columns and labels:
[1] = target: pro-protein convertase of the subtype nine binding to recombinant LDLR-AB domain (Homo sapiens, UniProt Q8NBP7); assay: in vitro quantitative solid phase binding assay (ELISA) of the subtype nine pro-protein convertase to immobilized LDLR; conditions: for inhibition at 1 µM: Concentration 1 μM; for inhibition at 10 µM: Concentration 10 μM; for inhibition at 100 µM: Concentration 100 μM
Sequence of pro-protein convertase of the subtype nine binding to recombinant LDLR-AB domain (Q8NBP7 153-692): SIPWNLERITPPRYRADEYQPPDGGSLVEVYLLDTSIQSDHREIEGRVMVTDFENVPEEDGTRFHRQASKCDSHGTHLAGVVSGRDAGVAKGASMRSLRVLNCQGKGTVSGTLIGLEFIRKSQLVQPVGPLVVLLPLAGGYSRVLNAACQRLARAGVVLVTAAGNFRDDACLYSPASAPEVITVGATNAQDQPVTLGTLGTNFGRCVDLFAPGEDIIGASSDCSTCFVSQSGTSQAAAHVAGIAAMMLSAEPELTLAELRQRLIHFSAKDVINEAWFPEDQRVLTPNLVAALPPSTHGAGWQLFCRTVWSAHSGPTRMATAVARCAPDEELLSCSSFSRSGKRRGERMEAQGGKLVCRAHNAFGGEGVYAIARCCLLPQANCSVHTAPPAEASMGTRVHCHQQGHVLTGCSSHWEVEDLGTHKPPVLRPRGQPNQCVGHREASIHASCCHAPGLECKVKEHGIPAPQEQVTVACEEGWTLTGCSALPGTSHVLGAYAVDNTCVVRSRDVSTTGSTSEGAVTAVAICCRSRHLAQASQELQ
Sequence of pro-protein convertase of the subtype nine binding to recombinant LDLR-AB domain (Q8NBP7 31-152 partner limits assumed): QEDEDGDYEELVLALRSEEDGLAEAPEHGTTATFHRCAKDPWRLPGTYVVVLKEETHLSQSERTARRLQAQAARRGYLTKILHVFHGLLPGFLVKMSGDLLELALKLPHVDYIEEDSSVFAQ
Experimental: The in vitro binding assay described hereinafter is a quantitative solid phase binding assay for determining the efficacy of the compounds. Plates were pre-coated with a recombinant LDLR-AB domain, which binds to the gene pro-protein convertase of the subtype nine. Test compound at different concentrations was added to the subtype gene and added to LDLR immobilized on the wells. The amount of bound gene is measured by binding it with biotinylated anti-His-tag monoclonal antibody, followed by binding with horseradish peroxidase conjugated streptavidin substrate. The color was quantified by ELISA reader at […] which reflects the relative amount of “the gene” that binds to LDLR in presence and absence of the inhibitor. EC50 values were calculated by nonlinear regression analysis using graph pad prism software. Each concentration point represents values in duplicates.

High Fat Diet C57 Mice = assay: LDL-C lowering activity in high fat diet C57 mice; assay type: in vivo; conditions: C57 mice on high fat diet, dose 30 mg, orally once a day, day 28 of treatment
Experimental: The in-vivo LDL-c lowering for test compound was tested in C57 mice which were kept on high fat diet for 4 weeks and the blood was collected by retro-orbital sinus puncture method under light ether anesthesia on day 0 (pretreatment). Animal are grouped based on LDL-C levels, after that 4-6 week treatment with vehicle or test compound orally at a dose of 30 mpk dose once a day was given. On completion of treatment on day 28 of the treatment the blood was collected for LDL-C levels measurement. The percent change in LDL-C in test compound group Vs Vehicle group was calculated.

Compound	inhibition at 1 µM [1]	inhibition at 10 µM [1]	inhibition at 100 µM [1]	% Change Vs Vehicle Control LDL-C (High Fat Diet C57 Mice)	% Change Vs Vehicle Control TC (High Fat Diet C57 Mice)
CCC(=NOCc1ccc(C(F)(F)F)cc1)c1ccc(OCC(=O)NCC2CCOCC2)cc1 [Example 1, N-((tetrahydro-2H-pyran-4-yl)methyl)-2-(4-(1-(((4-(trifluoromethyl)benzyl)oxy)imino)propyl)phenoxy)acetamide]	29%	35%	57%	−48.8 ± 4.2%	−11.8 ± 2.7%
CC(=NOCc1ccc(C(F)(F)F)cc1)c1ccc(OCC(=O)NCC2CCOCC2)nc1 [Example 3, N-((tetrahydro-2H-pyran-4-yl)methyl)-2-((5-(1-(((4-(trifluoromethyl)benzyl)oxy)imino)ethyl)pyridin-2-yl)oxy)acetamide]	28%	41%	54%	−74.6 ± 2.0%	−33.6 ± 2.0%
CC(=NOCc1ccc(C(F)(F)F)cc1)c1ccc(OCC(=O)NCC2CCOCC2)cc1 [Example 18, N-((tetrahydro-2H-pyran-4-yl)methyl)-2-(4-(1-(((4-(trifluoromethyl)benzyl)oxy)imino)ethyl)phenoxy)acetamide]	16%	38%	63%	−75.2 ± 3.5%	−41.6 ± 1.9%
CCC(=NOCc1ccc(C(F)(F)F)cc1)c1ccc(OCC(=O)NCC2CCOCC2)nc1 [Example 22, N-((tetrahydro-2H-pyran-4-yl)methyl)-2-((5-(1-(((4-(trifluoromethyl)benzyl)oxy)imino)propyl)pyridin-2-yl)oxy)acetamide]	29%	46%	46%	−64.6 ± 4.1%	−21.5 ± 2.8%
O=C(COc1ccc(C(CO)=NOCc2ccc(C(F)(F)F)cc2)cc1)NCC1CCOCC1 [Example 31, 2-(4-(2-hydroxy-1-(((4-(trifluoromethyl)benzyl)oxy)imino)ethyl)phenoxy)-N-((tetrahydro-2H-pyran-4-yl)methyl)acetamide]	15%	20%	29%	−30.6 ± 3.6%	−3.5 ± 3.4%
O=C(COc1ccc(C(Cc2ccccc2)=NOCc2ccc(OC(F)(F)F)cc2)cc1)NCC1CCOCC1 [Example 39, 2-(4-(2-phenyl-1-(((4-(trifluoromethoxy)benzyl)oxy)imino)ethyl)phenoxy)-N-((tetrahydro-2H-pyran-4-yl)methyl)acetamide]		33%	42%		
COc1ccc(CON=C(Cc2ccccc2)c2ccc(OCC(=O)NCC3CCOCC3)c(C)c2)cc1 [Example 40, 2-(4-(1-(((4-methoxybenzyl)oxy)imino)-2-phenylethyl)-2-methylphenoxy)-N-((tetrahydro-2H-pyran-4-yl)methyl)acetamide]		20%	47%		
COc1ccc(CON=C(Cc2ccccc2)c2ccc(OCC(=O)NCC3CCOCC3)cc2)cc1 [Example 41, 2-(4-(1-(((4-methoxybenzyl)oxy)imino)-2-phenylethyl)phenoxy)-N-((tetrahydro-2H-pyran-4-yl)methyl)acetamide]	10%		19%		
CCC(=NOCc1ccc(S(C)(=O)=O)cc1)c1ccc(OCC(=O)NCC2CCOCC2)cc1 [Example 42, 2-(4-(1-(((4-(methylsulfonyl)benzyl)oxy)imino)propyl)phenoxy)-N-((tetrahydro-2H-pyran-4-yl)methyl)acetamide]		9%	51%		
O=C(COc1ccc(C(Cc2ccccc2)=NOCc2ccccn2)cc1)NCC1CCOCC1 [Example 43, 2-(4-(2-phenyl-1-((pyridin-2-ylmethoxy)imino)ethyl)phenoxy)-N-((tetrahydro-2H-pyran-4-yl)methyl)acetamide]		15%	27%		
O=C(COc1ccc2c(c1)CCCC2=NOCc1ccc(C(F)(F)F)cc1)NCC1CCOCC1 [Example 48, N-((tetrahydro-2H-pyran-4-yl)methyl)-2-((5-(((4-(trifluoromethyl)benzyl)oxy)imino)-5,6,7,8-tetrahydronaphthalen-2-yl)oxy)acetamide]	17%	42%	64%		
O=C(COc1ccc2c(c1)CCCC2=NOCc1ccc(Cl)cc1)NCC1CCOCC1 [Example 49, 2-((5-(((4-chlorobenzyl)oxy)imino)-5,6,7,8-tetrahydronaphthalen-2-yl)oxy)-N-((tetrahydro-2H-pyran-4-yl)methyl)acetamide]		7%	11%		
